# Data published in patent US20230346827A1 (priority 2020, published 2023).
# System: rats subjected to sTBI
# Assay: sTBI rats, LMW-DS 1, 5, 15 mg/kg s.c. 30 min post-TBI: HPLC of brain energy metabolites, antioxidants, oxidative/nitrosative stress biomarkers (Example 4)
# Assay type: in vivo, rat
# Conditions: for ATP/ADP / NAD+/NADH: adimensional ratio
# Experimental: Male Wistar rats (n=160) of 300-350 g body weight were used in this study. They were fed with standard laboratory diet and water ad libitum in a controlled environment.
# As the accepted anesthetic mixture, animals received 35 mg/kg b.w. ketamine and 0.25 mg/kg body weight midazolam by intramuscular injection. Diffuse sTBI was induced according to the “weight drop” impact acceleration model set up by Marmarou et al. J. Neurosurg. 1994, 80: 291-300. This model causes diffuse axonal injury and it is able to reproduce the physical and mechanical characteristics of the diffuse TBI in humans.
# Severe TBI was induced by dropping a 450 g weight from 2 meters height onto the rat head protected by a helmet (metal disk previously fixed on the skull using dental cement) in order to uniformly distribute the mechanical force to the brain. Rats were placed prone on a bed of specific polyurethane foam inserted in a special container; this foam dissipates the major part of the potential energy (deriving from the mechanical forces) and prevents any rebound of the animal after the impact that could produce spinal damages.
# After 2 or 7 days from TBI induction, rats were anesthetized again and then immediately sacrificed. These time points are coincident with the worst biochemical derangement (2 days) or, in the case of a mildly injured brain, with a full metabolic recovery (7 days).
# The drug treatment consisted in a subcutaneous injection of 0.5 ml of LMW-DS (ILB®, Tikomed, Viken, Sweden, WO 2016/076780) and administered at 3 different concentrations (1, 5 and 15 mg/kg body weight), according to the schematic protocol described below. Sham-operated animals underwent the same procedure of anesthesia but TBI and were used as the control group.
# Rats subjected to sTBI and receiving a single administration of LMW-DS after 30 minutes post-TBI, with sacrifice at 2 days post-TBI. Animals were divided in the following subgroups: • 1. 12 animals subjected to sTBI and treated with 1 mg/kg b.w. LMW-DS • 2. 12 animals subjected to sTBI and treated with 5 mg/kg b.w. LMW-DS • 3. 12 animals subjected to sTBI and treated with 15 mg/kg b.w. LMW-DS
# Rats subjected to sTBI and receiving a single administration of LMW-DS after 30 minutes post-TBI, with sacrifice at 7 days post-TBI. Animals were divided in the following subgroups: • 1. 12 animals subjected to sTBI and treated with 1 mg/kg b.w. LMW-DS • 2. 12 animals subjected to sTBI and treated with 5 mg/kg b.w. LMW-DS • 3. 12 animals subjected to sTBI and treated with 15 mg/kg b.w. LMW-DS
# Rats (n = 12) subjected to sTBI and receiving repeated administrations of the maximal dose of LMW-DS (15 mg/kg b.w.) after 30 minutes, 3 days and 5 days post-TBI, with sacrifice at 7 days post-TBI. Four additional rats were used for the histo-morphological studies. Total rats in this group: n=16
# To minimize metabolite loss, an in vivo craniectomy was performed in all animals during anesthesia. The rat skull was carefully removed, the brain was exposed, sharply cut along the sagittal fissure and the two hemispheres were separated. The hemispheres dedicated to biochemical analyses were freeze-clamped by aluminum tongues pre-cooled in liquid nitrogen and then immersed in liquid nitrogen. The freeze-clamping procedure was introduced to accelerate freezing of the tissue, thus minimizing potential metabolite loss.
# Tissue homogenization for metabolite analyses was effected as described below. After the wet weight (w.w.) determination, the frozen hemispheres were placed into 7 ml of ice-cold, nitrogen-saturated, precipitating solution (1:10 w/v) composed by CH3CN + 10 mM KH2PO4, pH 7.40, (3:1; v:v), and the homogenization was performed using an Ultra-Turrax homogenizer set at 24,000 rpm/min (Janke & Kunkel, Staufen, Germany). […]
# [1] = 15 mg/kg repeated, 7 d post-sTBI
substance,measurement,setting,value
sodium salt of dextran sulfate [LMW-DS],Malonyl-CoA,"5 mg/kg, 7 d post-sTBI",6.02 ± 1.09 nmol/g w.w.
same,NADH,"5 mg/kg, 7 d post-sTBI",8.83 ± 1.26 nmol/g w.w.
same,NADPH,"5 mg/kg, 7 d post-sTBI",12.30 ± 2.86 nmol/g w.w.
same,NADP^+,"5 mg/kg, 7 d post-sTBI",24.45 ± 8.97 nmol/g w.w.
same,NAD^+,"5 mg/kg, 7 d post-sTBI",293.36 ± 41.55 nmol/g w.w.
same,NO2,"5 mg/kg, 7 d post-sTBI",59.61 ± 12.91 nmol/g w.w.
same,NO3,"5 mg/kg, 7 d post-sTBI",234.45 ± 40.05 nmol/g w.w.
same,UDP,"5 mg/kg, 7 d post-sTBI",44.19 ± 6.22 nmol/g w.w.
same,UDP-Gal,"5 mg/kg, 7 d post-sTBI",132.66 ± 9.12 nmol/g w.w.
same,UDP-GalNac,"5 mg/kg, 7 d post-sTBI",17.37 ± 4.98 nmol/g w.w.
same,UDP-Glc,"5 mg/kg, 7 d post-sTBI",58.10 ± 11.81 nmol/g w.w.
same,UDP-GlcNac,"5 mg/kg, 7 d post-sTBI",85.14 ± 29.45 nmol/g w.w.
same,UMP,"5 mg/kg, 7 d post-sTBI",167.18 ± 32.39 nmol/g w.w.
same,URACIL,"5 mg/kg, 7 d post-sTBI",18.34 ± 3.77 nmol/g w.w.
same,URIC ACID,"5 mg/kg, 7 d post-sTBI",17.26 ± 4.11 nmol/g w.w.
same,URIDINE,"5 mg/kg, 7 d post-sTBI",134.60 ± 31.89 nmol/g w.w.
same,UTP,"5 mg/kg, 7 d post-sTBI",175.02 ± 30.65 nmol/g w.w.
same,XANTHINE,"5 mg/kg, 7 d post-sTBI",14.33 ± 4.05 nmol/g w.w.
same,β-PSEUDOURIDINE,"5 mg/kg, 7 d post-sTBI",17.51 ± 3.25 nmol/g w.w.
same,ATP/ADP,"5 mg/kg, 7 d post-sTBI",6.28 ± 0.80
same,NAD+/NADH,"5 mg/kg, 7 d post-sTBI",33.90 ± 7.19
same,ADENOSINE,[1],40.84 ± 30.25 nmol/g w.w.
same,ADP,[1],260.32 ± 34.67 nmol/g w.w.
same,ADP-Ribose,[1],13.23 ± 3.32 nmol/g w.w.
same,AMP,[1],43.12 ± 3.39 nmol/g w.w.
same,ASCORBIC ACID,[1],2617.09 ± 315.18 nmol/g w.w.
same,ATP,[1],1971.17 ± 158.57 nmol/g w.w.
same,Acetyl-CoA,[1],37.91 ± 6.46 nmol/g w.w.
same,CDP choline,[1],11.72 ± 3.76 nmol/g w.w.
same,CMP,[1],31.21 ± 13.28 nmol/g w.w.
same,CREATININE,[1],9.07 ± 1.60 nmol/g w.w.
same,CTP,[1],92.67 ± 16.27 nmol/g w.w.
same,CYTIDINE,[1],72.85 ± 25.63 nmol/g w.w.
same,CYTOSINE,[1],8.76 ± 1.88 nmol/g w.w.
same,CoA-SH,[1],45.76 ± 5.87 nmol/g w.w.
same,GDP,[1],109.06 ± 12.46 nmol/g w.w.
same,GDP Glucose,[1],106.42 ± 12.45 nmol/g w.w.
same,GMP,[1],61.86 ± 29.28 nmol/g w.w.
same,GSH,[1],2342.03 ± 308.72 nmol/g w.w.
same,GTP,[1],466.06 ± 42.38 nmol/g w.w.
same,GUANINE,[1],3.32 ± 1.41 nmol/g w.w.
same,GUANOSINE,[1],19.66 ± 4.10 nmol/g w.w.
same,HYPOXANTHINE,[1],4.10 ± 1.19 nmol/g w.w.
same,IMP,[1],141.84 ± 36.32 nmol/g w.w.
same,INOSINE,[1],139.26 ± 15.62 nmol/g w.w.
same,MDA,[1],4.09 ± 0.67 nmol/g w.w.
same,Malonyl-CoA,[1],12.56 ± 2.27 nmol/g w.w.
same,NADH,[1],11.05 ± 1.52 nmol/g w.w.
same,NADPH,[1],11.21 ± 2.60 nmol/g w.w.
same,NADP^+,[1],16.56 ± 6.08 nmol/g w.w.
same,NAD^+,[1],401.73 ± 56.89 nmol/g w.w.
same,NO2,[1],130.69 ± 28.31 nmol/g w.w.
same,NO3,[1],271.69 ± 46.41 nmol/g w.w.
same,UDP,[1],37.12 ± 5.22 nmol/g w.w.
same,UDP-Gal,[1],135.15 ± 9.29 nmol/g w.w.
same,UDP-GalNac,[1],16.50 ± 4.73 nmol/g w.w.
same,UDP-Glc,[1],61.37 ± 12.47 nmol/g w.w.
same,UDP-GlcNac,[1],86.42 ± 29.89 nmol/g w.w.
same,UMP,[1],107.66 ± 20.86 nmol/g w.w.
same,URACIL,[1],24.13 ± 4.96 nmol/g w.w.
same,URIC ACID,[1],7.80 ± 1.86 nmol/g w.w.
same,URIDINE,[1],97.21 ± 23.03 nmol/g w.w.
same,UTP,[1],133.72 ± 23.42 nmol/g w.w.
same,XANTHINE,[1],11.24 ± 3.18 nmol/g w.w.
same,β-PSEUDOURIDINE,[1],16.72 ± 3.10 nmol/g w.w.
same,ATP/ADP,[1],7.67 ± 0.97
same,NAD+/NADH,[1],37.47 ± 9.46
same,ADENOSINE,"15 mg/kg, 2 d post-sTBI",53.25 ± 12.75 nmol/g w.w.
same,ADP,"15 mg/kg, 2 d post-sTBI",346.37 ± 29.79 nmol/g w.w.
same,ADP-Ribose,"15 mg/kg, 2 d post-sTBI",23.06 ± 4.63 nmol/g w.w.
same,AMP,"15 mg/kg, 2 d post-sTBI",66.26 ± 10.74 nmol/g w.w.
same,ASCORBIC ACID,"15 mg/kg, 2 d post-sTBI",2783.04 ± 160.17 nmol/g w.w.
same,ATP,"15 mg/kg, 2 d post-sTBI",1556.54 ± 91.20 nmol/g w.w.
same,Acetyl-CoA,"15 mg/kg, 2 d post-sTBI",32.38 ± 3.77 nmol/g w.w.
same,CDP choline,"15 mg/kg, 2 d post-sTBI",7.07 ± 1.05 nmol/g w.w.
same,CMP,"15 mg/kg, 2 d post-sTBI",25.61 ± 5.23 nmol/g w.w.
same,CREATININE,"15 mg/kg, 2 d post-sTBI",11.77 ± 2.19 nmol/g w.w.
same,CTP,"15 mg/kg, 2 d post-sTBI",37.53 ± 7.59 nmol/g w.w.
same,CYTIDINE,"15 mg/kg, 2 d post-sTBI",11.46 ± 2.07 nmol/g w.w.
same,CYTOSINE,"15 mg/kg, 2 d post-sTBI",13.57 ± 1.66 nmol/g w.w.
same,CoA-SH,"15 mg/kg, 2 d post-sTBI",9.35 ± 1.03 nmol/g w.w.
